Laboratory results published in patent US9790233B2, “Compositions and methods of modulating 15-PGDH activity” (CASE WESTERN RESERVE UNIVERSITY, priority 2012, dated 2017).
Read-outs that look alike come from different tables or passages of the source.

Experiments:
Type in all cases: cell-based
[1] = system: 15-PGDH luciferase fusion construct in V9m reporter cell line; experiment: 15-PGDH-luciferase fusion gene reporter induction, V9m cells
[2] = system: 15-PGDH luciferase fusion construct in Vaco503 reporter cell line; experiment: 15-PGDH-luciferase fusion gene reporter induction, V503 cells
[3] = system: 15-PGDH luciferase fusion construct in LS174T reporter cell line; experiment: 15-PGDH-luciferase fusion gene reporter induction, LS174T cells; details: Homo sapiens
[4] = read-out: V9M-SC3 Reporter activity ([…]) (%), […], Table 18, read-out: V9M-SC3 Reporter activity (2.5 μM) (%)
[5] = read-out: V503-3H9-7 reporter activity, % ([…]), […], Table 18, read-out: V503-3H9-7 reporter activity, % (2.5 μM)
[6] = read-out: V503-3H9-7 reporter activity, % ([…]), […], Table 18, read-out: V503-3H9-7 reporter activity, % (7.5 μM)
[7] = read-out: Ls174T-SC1 reporter activity, % ([…]), […], Table 18, read-out: Ls174T-SC1 reporter activity, % (2.5 μM)
[8] = read-out: Ls174T-SC1 reporter activity, % ([…]), […], Table 18, read-out: Ls174T-SC1 reporter activity, % (7.5 μM)
[9] = read-out: V9M-SC3 Reporter activity ([…]) (%), V9m reporter cells, […] compound, % induction of luciferase activity over basal level, read-out: V9M-SC3 Reporter activity (2.5 μM) (%)
[10] = read-out: V9M-SC3 Reporter activity ([…]), %, V9m reporter cells, […] compound, % induction of luciferase activity over basal level, read-out: V9M-SC3 Reporter activity (7.5 μM), %
[11] = read-out: V503-3H9-7 reporter activity, % ([…]), V503 reporter cells, […] compound, % induction of luciferase activity over basal level, read-out: V503-3H9-7 reporter activity, % (2.5 μM)
[12] = read-out: V503-3H9-7 reporter activity, % ([…]), V503 reporter cells, […] compound, % induction of luciferase activity over basal level, read-out: V503-3H9-7 reporter activity, % (7.5 μM)
[13] = read-out: Ls174T-SC1 reporter activity, % ([…]), LS174T reporter cells, […] compound, % induction of luciferase activity over basal level, read-out: Ls174T-SC1 reporter activity, % (2.5 μM)
[14] = read-out: Ls174T-SC1 reporter activity, % ([…]), LS174T reporter cells, […] compound, % induction of luciferase activity over basal level, read-out: Ls174T-SC1 reporter activity, % (7.5 μM)
[15] = read-out: V9M reporter activity ([…]), […], % induction of luciferase activity over basal level, Table 17, read-out: V9M reporter activity (2.5 μM)
[16] = read-out: V9M reporter activity ([…]), […], % induction over basal level, Table 17, read-out: V9M reporter activity (7.5 μM)
[17] = read-out: V503 reporter activity ([…]), […], % induction over basal level, Table 17, read-out: V503 reporter activity (2.5 μM)
[18] = read-out: V503 reporter activity ([…]), […], % induction over basal level, Table 17, read-out: V503 reporter activity (7.5 μM)
[19] = read-out: LS174T reporter activity ([…]), […], % induction over basal level, Table 17, read-out: LS174T reporter activity (2.5 μM)
[20] = read-out: lS174T reporter activity ([…]), […], % induction over basal level, Table 17, read-out: lS174T reporter activity (7.5 μM)
[21] = read-out: V9M reporter activity ([…]), […], % increased luciferase activity over basal level, 100 = doubling, read-out: V9M reporter activity (2.5 uM)
[22] = read-out: V9M reporter activity ([…]), […], % increased luciferase activity over basal level, 100 = doubling, read-out: V9M reporter activity (7.5 uM)
[23] = read-out: V503 reporter activity ([…]), […], % increased luciferase activity over basal level, read-out: V503 reporter activity (2.5 uM)
[24] = read-out: V503 reporter activity ([…]), […], % increased luciferase activity over basal level, read-out: V503 reporter activity (7.5 uM)
[25] = read-out: LS174T reporter activity ([…]), […], % increased luciferase activity over basal level, read-out: LS174T reporter activity (2.5 uM)
[26] = read-out: LS174T reporter activity ([…]), […], % increased luciferase activity over basal level, read-out: LS174T reporter activity (7.5 uM)
[27] = V9m reporter cells, […] compound, % induction of luciferase activity over basal level

Structure (SMILES)	activation at […] [1, 9] [%]	activation at […] [1, 10] [%]	activation at […] [2, 11] [%]	activation at […] [2, 12] [%]	activation at […] [3, 13] [%]	activation at […] [3, 14] [%]	activation at […] [1, 15] [%]	activation at […] [1, 16] [%]	activation at […] [2, 17] [%]	activation at […] [2, 18] [%]	activation at […] [3, 19] [%]	activation at […] [3, 20] [%]	also measured
CCc1ccccc1N(CC(=O)Nc1cccnc1)S(=O)(=O)c1ccccc1 [528580−69−0]	–	–	–	–	–	–	–	–	–	–	–	–	activation at […] [1, 4]: 4.71%; activation at […] [2, 5]: 66%; activation at […] [2, 6]: 110%; activation at […] [3, 7]: 11.5%; activation at […] [3, 8]: -4.81%
COc1ccc(OC)c(NCC(=O)Nc2cccnc2)c1 [SW202948]	-22	-23.1	16.4	7.54	-6.73	8.36	–	–	–	–	–	–	–
COc1ccc(OC)c(N(CC(=O)Nc2ccccc2C)S(=O)(=O)c2ccccc2)c1 [SW202975]	-26.6	-8.97	47.4	116	-7.32	17.2	–	–	–	–	–	–	–
COc1ccc(OC)c(N(CC(=O)NC(C)c2ccccc2)S(=O)(=O)c2ccc(OC)c(OC)c2)c1 (stereo not drawn) [compound 967134]	–	–	–	–	–	–	-10.1	-2.64	18.4	36.1	5.11	5.73	–
COc1ccc(OC)c(N(CC(=O)Nc2cccnc2)S(=O)(=O)c2ccccc2Cl)c1 [SW202949]	5.76	-5.69	-12.5	5.32	-1.58	-5.87	–	–	–	–	–	–	–
CCc1cccc(CC)c1NC(=O)CN(c1cc(OC)ccc1OC)S(=O)(=O)c1ccc(OC)c(OC)c1 [compound 1003429]	–	–	–	–	–	–	12.6	4.17	-7.46	-19.2	8.82	-6.88	–
COc1ccc(OC)c(N(CC(=O)Nc2cnccn2)S(=O)(=O)c2ccccc2)c1 [SW203681]	18	122	90.4	72.4	121	152	–	–	–	–	–	–	–
CCCCC[S+]([O-])c1sc2nc(-c3cccs3)cc(-c3ccccc3)c2c1N (stereo not drawn) [SW208080, 2-(pentylsulfinyl)-4-phenyl-6-(thiophen-2-yl)thieno[2,3-b]pyridin-3-amine]	–	–	–	–	–	–	–	–	–	–	–	–	activation at […] [1, 21]: 102%; activation at […] [1, 22]: 98.7%; activation at […] [2, 23]: 104%; activation at […] [2, 24]: 127%; activation at […] [3, 25]: 118%; activation at […] [3, 26]: 117%
O=C(CN(c1ccccc1)S(=O)(=O)c1ccccc1)Nc1ccccn1 [compound 414183]	–	–	–	–	–	–	-9.15	-3.89	11.5	37.2	5.35	-4.77	–
COc1ccc(S(=O)(=O)N(CC(=O)Nc2ccc(Cl)cc2Cl)c2ccccc2)cc1 [compound 543716]	–	–	–	–	–	–	4.2	-0.14	-8.04	-8.6	3.26	-2.08	–
COc1ccc(OC)c(N(CC(=O)Nc2cccnc2)S(=O)(=O)c2ccc(C)cc2)c1 [SW202939]	75.3	128	26.6	27.3	75.5	166	–	–	–	–	–	–	–
COc1cccc(NC(=O)CN(c2cc(OC)ccc2OC)S(=O)(=O)c2ccccc2)c1 [SW202976]	-18.5	9.6	36.8	138	-9.97	30.1	–	–	–	–	–	–	–
CCCC[S+]([O-])c1sc2nc(-c3ccccc3)nc(-c3ccccc3)c2c1N (stereo not drawn) [SW208065, 6-(butylsulfinyl)-2,4-diphenylthieno[2,3-d]pyrimidin-5-amine]	–	–	–	–	–	–	–	–	–	–	–	–	activation at […] [1, 21]: 120%; activation at […] [1, 22]: 119%; activation at […] [2, 23]: 73.5%; activation at […] [2, 24]: 87.7%; activation at […] [3, 25]: 73.5%; activation at […] [3, 26]: 87.7%
COc1ccc(OC)c(N(CC(N)=O)S(=O)(=O)c2ccccc2)c1 [SW131635]	11.4	15.1	-37.7	14.4	111	14.1	–	–	–	–	–	–	–
CCOc1ccccc1N(CC(=O)Nc1ccccc1Br)S(=O)(=O)c1ccc(C)cc1 [compound 771074]	–	–	–	–	–	–	13.5	24.7	23	39.5	20.7	20.6	–
COc1ccc(OC)c(N(CC(=O)Nc2ccnc(Cl)c2)S(=O)(=O)c2ccccc2)c1 [SW202946]	64.6	-41.5	137	34.3	105	-23.6	–	–	–	–	–	–	–
COc1ccc(OC)c(N(CC(=O)NC2CCCCC2)S(=O)(=O)c2ccccc2)c1 [333446-93-8]	–	–	–	–	–	–	–	–	–	–	–	–	activation at […] [1, 4]: 16.5%; activation at […] [2, 5]: 53.8%; activation at […] [2, 6]: 44.1%; activation at […] [3, 7]: 12.9%; activation at […] [3, 8]: 13.5%
COc1ccc(OC)c(N(CC(=O)Nc2cccnc2C)S(=O)(=O)c2ccccc2)c1 [SW202968]	-21.1	-7.36	35.2	53.9	-17.5	6.08	–	–	–	–	–	–	–
COc1ccc(OC)c(N(CC(=O)Nc2cccc(Cl)c2)S(=O)(=O)c2ccc(OC)c(OC)c2)c1 [compound 785254]	–	–	–	–	–	–	-16.1	-8.48	16.1	28.3	2.93	4.29	–
COc1ccc(OC)c(N(CC(=O)Nc2ccc(F)cc2)S(=O)(=O)c2ccccc2)c1 [426231-26-7]	–	–	–	–	–	–	–	–	–	–	–	–	activation at […] [1, 4]: 10%; activation at […] [2, 5]: 64%; activation at […] [2, 6]: 113%; activation at […] [3, 7]: 16.2%; activation at […] [3, 8]: 22.1%
COc1ccc(OC)c(NC(=O)CN(c2ccc([N+](=O)[O-])cc2)S(=O)(=O)c2ccccc2)c1 [compound 414195]	–	–	–	–	–	–	-13.9	-16.8	13.1	19.5	-1.15	2.34	–
COc1ccc(OC)c(N(CC(=O)Nc2cccnc2)S(=O)(=O)c2cccc(C)c2)c1 [SW203684]	50.7	74.9	81.2	52.5	170	119	–	–	–	–	–	–	–
COc1ccccc1N(CC(=O)Nc1ccc(F)c(Cl)c1)S(=O)(=O)c1ccccc1 [compound 537833]	–	–	–	–	–	–	-7.54	-7.44	42.3	73.2	4.94	9.04	–
COc1ccc(OC)c(N(CC(=O)N2CCCC2)S(=O)(=O)c2ccccc2)c1 [SW208001]	19.6	23.3	-4.07	6.68	-0.61	1.87	–	–	–	–	–	–	–
Nc1c(C(=O)Cc2ccccc2)sc2nc(-c3cccs3)cc(-c3ccccc3)c12 [SW033292]	–	–	–	–	–	–	–	–	–	–	–	–	activation at […] [1, 21]: 1.51%
COc1ccc(OC)c(N(CC(=O)Nc2cncc(Cl)c2)S(=O)(=O)c2ccccc2)c1 [SW202990]	–	–	–	–	–	–	–	–	–	–	–	–	V9M-SC3 Reporter activity ([…]) (%) [1, 27]: 3.57%; V9M-SC3 Reporter activity ([…]), % [1, 27]: 23.49%
